Results reported in publication PMC9866339, “In Silico and In Vitro Study of Janus Kinases Inhibitors from Naphthoquinones” (Molecules, 2023).
Like-named read-outs stand apart in the source and are kept apart here.

How the values were obtained:
TF1 cells [1] = experiment: Presto Blue cytotoxicity assay on TF1 cells; type: cell-based, human; conditions: for Cytotoxicity screening on TF1 cells: 10 μM, Presto Blue assay, result in words; for IC50: Homo sapiens, TF-1, 72 h, read-out: IC50 against TF1 cell viability
Protocol: (§1) The cytotoxicity activity of naphthoquinones against both TF1 and HEL cells was performed using the Presto Blue assay. The TF1 (50,000 cells/well) and HEL (25,000 cells/well) cell suspensions were seeded in a 96-well microplate and incubated overnight at 37 °C. […] The absorbance of the resorufin product was measured at 570 nm using a microplate reader (Infinite M200 microplate reader, Tecan, Männedorf, Switzerland) after adding 10 μL of Presto Blue reagent in TF1 and HEL cells, which incubated at 37 °C for 1 h. The treatment without compounds/known drugs was used as vehicle control.

JAK3 = target: T1, JAK3 (Homo sapiens, UniProt P52333); experiment: ADP-Glo kinase assay, JAK3; type: biochemical; conditions: 5 μM ATP, read-out: IC50 ± SEM JAK3
T1 construct: purchased Sigma-Aldrich SRP0173
T1 sequence (P52333 781-1124 limits assumed): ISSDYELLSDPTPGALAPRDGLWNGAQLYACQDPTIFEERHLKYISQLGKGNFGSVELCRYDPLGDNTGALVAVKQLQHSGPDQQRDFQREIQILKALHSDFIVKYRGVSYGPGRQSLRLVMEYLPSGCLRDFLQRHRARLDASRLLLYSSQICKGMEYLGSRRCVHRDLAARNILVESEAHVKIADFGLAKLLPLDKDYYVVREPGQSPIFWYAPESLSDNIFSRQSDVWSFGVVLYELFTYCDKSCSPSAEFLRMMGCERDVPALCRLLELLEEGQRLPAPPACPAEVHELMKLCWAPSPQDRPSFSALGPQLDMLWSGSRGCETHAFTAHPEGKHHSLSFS
Protocol: (§2) The tyrosine kinase inhibition of JAK2 and JAK3 was performed using the ADP-Glo™ kinase assay (Promega). The 2.5 ng/μL of enzymes (Sigma-Aldrich), JAK2 (SRP0171), and JAK3 (SRP0173) were mixed with 1 μM of compounds/known drugs, 5 μM ATP and 2 ng/μL poly(glu·tyr), in a buffer (40 mM Tris−HCI pH 7.5, 20 mM MgCl2, and 0.1 mg/mL BSA). The reactions were incubated for 1 h at room temperature. Then, 5 μL of the ADP-Glo reagent was added and incubated for 40 min. Next, 10 μL of kinase detection reagent was added and incubated at room temperature for 30 min to convert ADP to ATP product. The ATP was detected by measuring the luminescence using a microplate reader. The relative inhibition (%) of compounds/known drugs was calculated and compared to the control without compounds/known drugs.

human keratinocytes = test system: human keratinocytes; parameters: method as in PMID 28250347, PMID 22845014; conditions: result in words; cited from earlier work
TF1 cells [2] = conditions: at IC50, 72 h, dot plot quadrant
Protocol: Subsequently, cells were harvested after being centrifuged at 1000 rpm for 5 min. The pellets were resuspended and incubated with 5 μL of caspase 3/7 reagent (MCH100108, Merk, Germany). Reactions were then incubated at 37 °C for 30 min and then mixed with 7-aminoactinomycin D (7-ADD). The number of apoptosis cells was analyzed by flow cytometry using the cell analyzer MUSE (Merck-MiIIipore, Burlington, MA, USA). All experiments were independently performed three times.

JAK2 = target: T2, JAK2 (Homo sapiens, UniProt O60674); experiment: ADP-Glo kinase assay, JAK2; type: biochemical; conditions: 5 μM ATP, read-out: IC50 ± SEM JAK2
T2 construct: purchased Sigma-Aldrich SRP0171
T2 sequence (O60674 808-1132 limits assumed): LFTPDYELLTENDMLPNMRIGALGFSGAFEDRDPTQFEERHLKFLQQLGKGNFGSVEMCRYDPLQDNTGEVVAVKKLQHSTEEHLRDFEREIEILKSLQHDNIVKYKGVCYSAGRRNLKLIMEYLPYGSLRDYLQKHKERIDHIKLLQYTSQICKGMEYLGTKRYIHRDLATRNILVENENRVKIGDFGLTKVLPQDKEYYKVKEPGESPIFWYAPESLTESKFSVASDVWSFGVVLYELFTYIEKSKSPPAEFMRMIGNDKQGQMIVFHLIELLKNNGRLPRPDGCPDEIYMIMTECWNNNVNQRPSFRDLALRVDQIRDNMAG
Protocol: as §2

HEL cells = experiment: Presto Blue cytotoxicity assay on HEL cells; type: cell-based, human; conditions: for Cytotoxicity screening on HEL cells: 10 μM, result in words; for IC50: Homo sapiens, HEL, 72 h, read-out: IC50 against HEL cell viability
Protocol: as §1

TF1 cells [3] = conditions: at IC50, 72 h, dot plot quadrant; remark: listed apart in the source
Protocol: The cells were then harvested after being centrifuged at 1000 rpm for 5 min. Then, the pellets were resuspended and incubated for 25 min at room temperature in the dark with annexin V and dead cell reagent (MCH100105, Merk, Germany). The apoptosis was assessed by a flow cytometry MUSE (Merck-MiIIipore, Burlington, MA, USA) analyzer. All experiments were independently performed three times.

HEL cell = conditions: read-out: IC50 HEL cell growth; cited from earlier work
JAK1 = conditions: read-out: IC50 JAK1; cited from earlier work

SMILES: CCC(=O)c1cc2c(o1)C(=O)c1ccccc1C2=O [2′-methyl napabucasin]
- Cytotoxicity screening on TF1 cells (TF1 cells [1]): highly potent cell growth inhibition
- IC50 (TF1 cells [1]): 18.1 µM
- IC50 (JAK3): 0.0102 ± 0.00066 µM
- Cytotoxicity against human keratinocytes (human keratinocytes): potent cytotoxicity
- Apoptotic cells, caspase 3/7 (TF1 cells [2]): 13.50%
- Apoptotic/Dead cells, caspase 3/7 (TF1 cells [2]): 22.35%
- Dead cells, caspase 3/7 (TF1 cells [2]): 0.70%
- Live cells, caspase 3/7 (TF1 cells [2]): 63.45%
- IC50 (JAK2): 0.0111 ± 0.00013 µM
- Cytotoxicity screening on HEL cells (HEL cells; Presto Blue assay): highly potent cell growth inhibition
- IC50 (HEL cells): 6.65 µM
- Dead cells, annexin V (TF1 cells [3]): 1.10%
- Early Apop. cells, annexin V (TF1 cells [3]): 25.42%
- Late Apop./Dead cells, annexin V (TF1 cells [3]): 51.16%
- Live cells, annexin V (TF1 cells [3]): 22.32%

SMILES: N#Cc1ccc(C2C3=C(CCCC3=O)OC3=C2C(=O)c2ccccc2C3=O)cc1 (stereo not shown) [CM363]
- IC50 (HEL cell): 1.3 µM

SMILES: O=C1C=CC(=O)c2c(O)cccc21 [Juglone, juglone]
- IC50 (HEL cells; Presto Blue assay, mean ± SEM): 8.67 ± 0.17 µM

SMILES: O=C1C=C(O)C(=O)c2ccccc21 [Lawsone, 2-hydroxy-1,4-naphthoquinone]
- Cytotoxicity screening on TF1 cells (TF1 cells [1]): inhibited the growth of both cell types poorly
- Cytotoxicity screening on HEL cells (HEL cells; Presto Blue assay): inhibited the growth of both cell types poorly

SMILES: CC1=CC(=O)c2ccccc2C1=O [Menadione, menadione]
- Cytotoxicity screening on HEL cells (HEL cells; Presto Blue assay): high cytotoxicity
- IC50 (HEL cells; Presto Blue assay, mean ± SEM): 7.99 ± 1.22 µM

SMILES: CC(=O)c1cc2c(o1)C(=O)c1ccccc1C2=O [Napabucasin, napabucasin]
- Cytotoxicity screening on TF1 cells (TF1 cells [1]): highly potent cell growth inhibition
- IC50 (TF1 cells [1]): 9.57 µM
- IC50 (JAK3): 0.0148 ± 0.00237 µM
- Apoptotic cells, caspase 3/7 (TF1 cells [2]): 25.85%
- Apoptotic/Dead cells, caspase 3/7 (TF1 cells [2]): 18.10%
- Dead cells, caspase 3/7 (TF1 cells [2]): 0.30%
- Live cells, caspase 3/7 (TF1 cells [2]): 55.75%
- IC50 (JAK2): 0.0126 ± 0.00212 µM
- Cytotoxicity screening on HEL cells (HEL cells; Presto Blue assay): highly potent cell growth inhibition
- IC50 (HEL cells): 3.31 µM
- Dead cells, annexin V (TF1 cells [3]): 3.50%
- Early Apop. cells, annexin V (TF1 cells [3]): 29.80%
- Late Apop./Dead cells, annexin V (TF1 cells [3]): 39.24%

SMILES: N#CC[C@H](C1CCCC1)n1cc(-c2ncnc3[nH]ccc23)cn1 [Ruxolitinib, ruxolitinib, reference compound]
- IC50 (TF1 cells [1]): 12.2 ± 0.58 µM
- IC50 (HEL cells): 26.04 ± 0.26 µM
